From US10653717B2, “Antibiotic compositions” (priority 2016, dated 2020)

Key:
[1] = test system: KP-2: K. pneumonia subsp. pneumonia 0322#; experiment: Drug sensitivity of clinical isolated strain; type: cell-based, Klebsiella pneumonia; further: key: R: resistant; S: sensitive
ECO-3: E. coli ZY-1 = experiment: Drug sensitivity of clinical isolated strain; type: cell-based, Escherichia coli; further: key: R: resistant; S: sensitive
[2] = test system: KP-2: K. pneumonia subsp. pneumonia 0322#; experiment: MIC of silver with antibiotics on clinical isolated MDR Gram-negative bacteria; type: cell-based, Klebsiella pneumonia; conditions: antibiotic 4 μM
Experimental: (§1) There are five clinically most difficult-to-treat MDR Gram-negative pathogen species: Klebsiella pneumonia, Acinetobacter baumannii, Pseudomonas aeruginosa, Enterobacter cloacae and Escherichia coli. One strain from each species was isolated, and overnight cultures were diluted 1:1000 times in LB medium, and treated with serial concentrations of Ag^+ and antibiotics in combinations for 24 h (Table 10).
(§2) Five clinical isolated MDR Gram-negative strains were grown until an OD600 nm of 0.4, and were diluted 1:1,000 into 100 μl LB medium in 96 micro-well plates. […] The cultures treated with the same serial dilutions of 100 μl ebselen and silver nitrate were used as the positive control.

[3] = test system: PA-1: Pseudomonas aeruginosa 1298#; experiment: as above; type: cell-based; conditions: antibiotic 4 μM
Experimental: as §1, §2

[4] = test system: AB-1: Acinetobacter baumannii H#; experiment: as above; type: cell-based; conditions: antibiotic 4 μM
Experimental: as §1, §2

[5] = test system: ECO-1: Escherichia coli 1139#; experiment: as above; type: cell-based; conditions: antibiotic 4 μM
Experimental: as §1, §2

[6] = test system: AB-1: Acinetobacter baumannii H#; experiment: Drug sensitivity of clinical isolated strain; type: cell-based; further: key: R: resistant; S: sensitive
ECO-2: E. coli 2219# = experiment: Drug sensitivity of clinical isolated strain; type: cell-based, Escherichia coli; conditions: ECO-2 (Table 3); further: key: R: resistant; S: sensitive
[7] = test system: KP-1: Klebsiella pneumonia subsp. pneumonia 13#; experiment: Drug sensitivity of clinical isolated strain; type: cell-based; conditions: KP-1 (Table 3); further: key: R: resistant; S: sensitive
[8] = test system: PA-1: Pseudomonas aeruginose 1298#; experiment: Drug sensitivity of clinical isolated strain; type: cell-based, Pseudomonas aeruginosa; further: key: R: resistant; S: sensitive
[9] = test system: ECL-1: Enterobacter cloacae 0431#; experiment: Drug sensitivity of clinical isolated strain; type: cell-based; conditions: ECL-1 (Table 3); further: key: R: resistant; S: sensitive
E. coli = experiment: Degree of synergy, Bliss Independence Model; type: cell-based, Escherichia coli; conditions: 5 μM AgNO3 with 80 μM antibiotic; 1 and 4 h
ECL-2: E. cloacae 2301# [10] = experiment: Drug sensitivity of clinical isolated strain; type: cell-based, Enterobacter cloacae; further: key: R: resistant; S: sensitive
AB-2: A. baumannii 0361# = experiment: Drug sensitivity of clinical isolated strain; type: cell-based, Acinetobacter baumannii; conditions: AB-2 (Table 3); further: key: R: resistant; S: sensitive
[11] = test system: PA-2: P. aeruginose 0009#; experiment: Drug sensitivity of clinical isolated strain; type: cell-based, Pseudomonas aeruginosa; conditions: PA-2 (Table 3); further: key: R: resistant; S: sensitive
GSH = GSH amount in treated E. coli cell extracts, GR-coupled DTNB reduction; type: cell-based, Escherichia coli; conditions: 5 μM Ag^+ and 80 μM antibiotic; 10 min; compared with antibiotics themselves
wild type E. coli DHB4 = experiment: MIC of nine antibiotics and silver in combinations on E. coli DHB4; type: cell-based, Escherichia coli; conditions: 24 h
Experimental: E. coli DHB4 overnight cultures were diluted 1:1000 times in Luria Bertani (LB) medium, and treated with serial dilutions of ionic silver (Ag^+) as a nitrate salt and 9 antibiotics in combinations, separately, for 24 h.
E. coli DHB4 from frozen stock were grown overnight at 37° C., 400 rpm. The overnight culture was diluted 1:100 with 5 ml of LB medium in 15 ml tubes and incubated at 37° C. at 400 rpm. Cells were grown until an OD600 nm of 0.4 and were used for antibiotic treatment. Briefly, cells were diluted 1:1,000 into 100 μl of LB medium in 96 micro-well plates. […] The minimum inhibition concentration (MIC) was determined as the lowest concentration of drugs that inhibited 90% of growth compared to the untreated cells after 24 h culture at 37° C. The cultures treated with the same serial dilutions of 100 μl ebselen and silver nitrate were used as the positive control.

ECL-2: E. cloacae 2301# [12] = experiment: MIC of silver with antibiotics on clinical isolated MDR Gram-negative bacteria; type: cell-based, Enterobacter cloacae; conditions: antibiotic 4 μM
Experimental: as §1, §2

[13] = test system: ECO-1: Escherichia coli 1139#; experiment: Drug sensitivity of clinical isolated strain; type: cell-based; further: key: R: resistant; S: sensitive

Q: Which results are given for Gentamicin?
A: Drug sensitivity ([1]; KP-2 (Table 3)): R; Drug sensitivity ([1]; KP-2 (table of Example 3)): R; Drug sensitivity (ECO-3: E. coli ZY-1; E. coli ZY-1 (Table 7)): S; Drug sensitivity (ECO-3: E. coli ZY-1; ECO-3 (Table 3)): S; MIC of silver in the presence of different antibiotics [2]: 160 µM; MIC of silver in the presence of different antibiotics [3]: 40 µM; MIC of silver in the presence of different antibiotics [4]: 80 µM; MIC of silver in the presence of different antibiotics [5]: 40 µM; Drug sensitivity ([6]; AB-1 (Table 3)): R; Drug sensitivity ([6]; AB-1 (table of Example 3)): R; Drug sensitivity (ECO-2: E. coli 2219#): R; Drug sensitivity [7]: R; Drug sensitivity ([8]; PA-1 (Table 3)): S; Drug sensitivity ([8]; PA-1 (table of Example 3)): S; Drug sensitivity [9]: R; degree of synergy with Ag^+ (Bliss model) (E. coli): synergistic combinations; Drug sensitivity (ECL-2: E. cloacae 2301# [10]; ECL-2 (Table 3)): R; Drug sensitivity (ECL-2: E. cloacae 2301# [10]; ECL-2 (table of Example 3)): R; Drug sensitivity (AB-2: A. baumannii 0361#): R; Drug sensitivity [11]: R; total GSH amount in cell extracts (GSH): slightly deplete; Antibacterial effect as MIC of antibiotic and silver (wild type E. coli DHB4; listed as head Silver (μM) 0): 40 µM; Antibacterial effect as MIC of antibiotic and silver (wild type E. coli DHB4; listed as head Silver (μM) 1): 20 µM; Antibacterial effect as MIC of antibiotic and silver (wild type E. coli DHB4; listed as head Silver (μM) 2): 2.5 µM; Antibacterial effect as MIC of antibiotic and silver (wild type E. coli DHB4; listed as head Silver (μM) 4): 1.25 µM; activity with silver on E. coli DHB4 growth (wild type E. coli DHB4; serial dilutions of Ag^+ and antibiotic): synergistic activity; MIC of silver in the presence of different antibiotics (ECL-2: E. cloacae 2301# [12]): 160 µM; Drug sensitivity ([13]; ECO-1 (Table 3)): S; Drug sensitivity ([13]; ECO-1 (table of Example 3)): S
